Residues, ends and D or L forms follow the SMILES beside them.

The subject of test [1] is human TF-1 cells. The test can be described thus: IL-1β-induced thymocyte (TF-1) proliferation, CyQUANT NF dye. As to conditions: peptide 1 μM; human IL-1β 25 ng/mL; 48 h. It is filed as cell-based. Here is the method: Immune cell proliferation was assessed by DNA intercalation of CyQUANT NF® fluorescent dye (Invitrogen, Carlsbad, Calif., USA). Essentially, human TF-1 cells (CRL-2003, American Type Culture Collection) were cultured in complete RPMI 1640 (WISENT Inc., Montréal, Quebec, Canada) supplemented with human GM-CSF (2 ng/ml, PeptroTech, Rocky Hill, N.J., USA). Cells (passage 5 and at least 85% viable, as verified by trypan blue dying) were reincorporated into RPMI 1640 medium deprived of phenol red (Gibco Invitrogen®, Carlsbad, Calif., USA) and of growth factors [i.e. fetal bovine serum (FBS) and GM-CSF] for 18 h and split (5×10^3 cells in 200 μL/well) into 96-well non-adherent flat bottom culture plates (Sarstedt®, Nümbrecht, Germany). Following 15 min pre-incubation with peptide or peptidomimetic (1 μM), the cells were treated with human IL-1β (25 ng/mL, PeproTech®, Rocky Hill, N.J., USA) and re-incubated. After 48 h, the cells were centrifuged for 7 min at 300 g, reincorporated into Hank's Buffered Salt Solution (1×HBSS, 50 μL/well, Gibco Invitrogen®, Carlsbad, Calif., USA) and transferred into a 96-well polystyrene black plate (Corning Incorporated, Corning, N.Y., USA). An additional 50 μL solution made of CyQUANT NF® dye (component A, 1×) and CyQUANT NF™ delivery agent (component B, 1×) in 1×HBSS was added to the cells in each well, which were covered with aluminum foil and incubated for 45 min. Fluorescence intensity was measured using a microplate reader (Perkin Elmer Wallac Envision® 2104; Perkin Elmer®, California, USA) with excitation at 485 nm and emission detection at 530 nm (FITC 485 and FITC 531 filters, respectively). Hexaplicate experiments were repeated three times and results were analyzed by one-way analysis of variance (ANOVA) factoring for treatments, and data are presented as mean±standard error of the mean (SEM).

Test [2] relates to NF-κB activation in HEK Blue IL-33/IL-1β sensor cells. The test can be described thus: HEK Blue SEAP reporter gene assay of NF-κB activation. It is filed as cell-based. As to conditions: peptide 1 μM; human IL-1β 2.5 ng/mL; 24 h. Here is the method: Activation of the NF-κB pathway upon interaction with IL-1β (or IL-33) receptor complex at the membrane was assessed via HEK-Blue SEAP reporter gene assay (InvivoGen®, California, USA). Basically, HEK Blue IL-33/IL-1β sensor cells were cultured in growth medium made of complete Dulbecco's modified Eagle medium (DMEM; 4.5 g/L glucose, 2 mM L-glutamine, […], 10% fetal bovine serum, 50 U/mL penicillin, 50 μg/mL streptomycin; Gibco Invitrogen®, Ontario, Canada) supplemented with selection antibiotics (30 μg/mL Blasticidin®, 200 μg/mL HygroGold® and 100 μg/mL Zeocin®; InvivoGen, California, USA). Upon reaching almost 70% confluency, HEK Blue cells were reincorporated into complete DMEM medium and split (2.5×10^4 cells in 180 μL/well) into 96-well membrane-treated flat bottom culture plates (Plate #3595, Corning Life Sciences, Massachusetts, USA). Cells were pretreated with 10 μL of peptide or peptidomimetic (1 μM) for 15 min., after which 10 μL of human IL-1β (2.5 ng/mL, PeproTech®, Rocky Hill, N.J., USA) was added. Following 24 h of incubation, 40 μL of the cells supernatant was added to a UV-transparent 96-well plate (Plate #3635, Corning Life Sciences®, Massachusetts, USA) already filled with 160 μL of resuspended Quanti-Blue® dye (1×, InvivoGen, California, USA). The plate was covered and incubated for 20 min. The level of SEAP was measured by reading absorbance (or optical density, OD) at 620 nm using a multiplate reader equipped with a monochromator (Perkin Elmer Wallac Envision® 2104; Perkin Elmer®, California, USA). Hexaplicate results were normalized over complete DMEM background signal and analyzed by one-way analysis of variance (ANOVA) factoring for treatments, and data are presented as mean±standard error of the mean (SEM).
On the technique in general: A reporter such as luciferase makes a cellular process visible.

Take `CC(C)C[C@@H](NC(=O)[C@@H](CCC(=O)O)NC(=O)[C@@H](C(C)C)N1CCN(NC(=O)[C@@H](Cc2ccc(O)cc2)NC(=O)[C@H](N)CCCNC(=N)N)C1=O)C(=O)N[C@H](C)C(N)=O` [[Nai^3]-101.10, D-Arg-D-Tyr-Nai-D-Val-D-Glu-D-Leu-D-Ala-NH2] (HELM PEPTIDE1{[dR].[dY].[CC(C)[C@H](C(=O)[*:2])N1CCN(N[*:1])C1=O].[dE].[dL].[dA].[am]}$$$$V2.0): the “diminished IL-1β-induced proliferation” value in test [1] turned out to be 77%. Also, the “inhibition of NF-κB activation (OD620)” value in test [2] turned out to be 65%.

“D-Arg-D-Tyr-D-Thr-D-Val-DGlu-D-Leu-D-Ala-NH2 [101.10, reference compound]”: the “diminished IL-1β-induced proliferation” value in test [1] is listed as 15%. For the same compound, in test [2], the “inhibition of NF-κB activation (OD620)” value is listed as 77%.

Kineret: a competitive IL-1R antagonist: the “inhibition of NF-κB activation (OD620)” value in test [2] was 100%.

The values are drawn from patent US8993515B2, “Peptidomimetics comprising N-amino cyclic urea residues and uses thereof” (Valorisation-Recherche, Limited Partnership, priority 2012, dated 2015).
